In US10800792B2, “Inhibitors of Bruton's tyrosine kinase and method of their use” (JANSSEN PHARMACEUTICA NV, priority 2015, dated 2020):

Target: unphosphorylated-BTK kinase domain (UP-BTK), GST-tagged human BTK (389-659aa) (Homo sapiens (Human), UniProt Q06187)
Assay: BTK kinase Lanthascreen binding assay
Settings: unphosphorylated-BTK kinase domain, 60 minutes incubation, 50 nM Tracer 236; pIC50 = negative log of the IC50 in molar
Method in brief: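 A fluorescent tracer is bound to unphosphorylated BTK; test compound is added to compete it off; the Lanthascreen signal is read and IC50 is fitted, then reported as its negative log in molar.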

Chain of unphosphorylated-BTK kinase domain (UP-BTK), GST-tagged human BTK (389-659aa) (Q06187 389-659): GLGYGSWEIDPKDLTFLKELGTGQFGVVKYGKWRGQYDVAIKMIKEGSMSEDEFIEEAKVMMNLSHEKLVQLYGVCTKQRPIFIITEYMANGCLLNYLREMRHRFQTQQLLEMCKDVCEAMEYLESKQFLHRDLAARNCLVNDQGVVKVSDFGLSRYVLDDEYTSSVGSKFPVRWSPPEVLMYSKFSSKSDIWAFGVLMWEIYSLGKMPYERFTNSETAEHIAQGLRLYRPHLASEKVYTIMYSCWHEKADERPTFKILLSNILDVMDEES

| SMILES | BTK_I_binding pIC50 |
| --- | --- |
| C=CC(=O)N1CCC[C@@H](NC(=O)c2sc3nccc4c3c2NC(=O)N4c2cc(Cl)cc(Cl)c2)C1 [Example 941, (R)—N-(1-Acryloylpiperidin-3-yl)-5-(3,5-dichlorophenyl)-4-oxo-4,5-dihydro-3H-1-thia-3,5,8-triazaacenaphthylene-2-carboxamide] | 5.8 |
| C=CC(=O)N1CCC[C@@H](NC(=O)c2sc3nccc4c3c2NC(=O)N4c2cccc(N(C)C)c2)C1 [Example 943, (R)—N-(1-Acryloylpiperidin-3-yl)-5-(3-(dimethylamino)phenyl)-4-oxo-4,5-dihydro-3H-1-thia-3,5,8-triazaacenaphthylene-2-carboxamide] | 5.6 |
| CN(C)c1ccc(N2C(=O)Nc3c(C(=O)N[C@@H]4CCCNC4)sc4nccc2c34)cc1 [Example 949, (R)-5-(4-(Dimethylamino)phenyl)-4-oxo-N-(piperidin-3-yl)-4,5-dihydro-3H-1-thia-3,5,8-triazaacenaphthylene-2-carboxamide] | 5.2 |
| Cc1cccc(N2C(=O)Nc3c(C(=O)N[C@@H]4CCCNC4)sc4nccc2c34)c1 [Example 950, (R)-4-Oxo-N-(piperidin-3-yl)-5-(m-tolyl)-4,5-dihydro-3H-1-thia-3,5,8-triazaacenaphthylene-2-carboxamide] | 5.1 |
| O=C(N[C@@H]1CCCNC1)c1sc2nccc3c2c1NC(=O)N3c1ccc(Cl)cc1 [Example 951, (R)-5-(4-Chlorophenyl)-4-oxo-N-(piperidin-3-yl)-4,5-dihydro-3H-1-thia-3,5,8-triazaacenaphthylene-2-carboxamide] | 5.1 |
| Cc1ccc(N2C(=O)Nc3c(C(=O)N[C@@H]4CCCNC4)sc4nccc2c34)cc1 [Example 952, (R)-4-Oxo-N-(piperidin-3-yl)-5-(p-tolyl)-4,5-dihydro-3H-1-thia-3,5,8-triazaacenaphthylene-2-carboxamide] | 5.1 |
| O=C(N[C@@H]1CCCNC1)c1sc2nccc3c2c1NC(=O)N3c1ccc(F)cc1 [Example 953, (R)-5-(4-Fluorophenyl)-4-oxo-N-(piperidin-3-yl)-4,5-dihydro-3H-1-thia-3,5,8-triazaacenaphthylene-2-carboxamide] | 5.1 |
| CC(C)(C)c1ccc(N2C(=O)Nc3c(C(=O)N[C@@H]4CCCNC4)sc4nccc2c34)cc1 [Example 954, (R)-5-(4-(tert-Butyl)phenyl)-4-oxo-N-(piperidin-3-yl)-4,5-dihydro-3H-1-thia-3,5,8-triazaacenaphthylene-2-carboxamide] | 5.0 |
| Cc1cc(N2C(=O)Nc3c(C(=O)N[C@@H]4CCCNC4)sc4nccc2c34)ccc1OC(C)C [Example 955, (R)-5-(4-Isopropoxy-3-methylphenyl)-4-oxo-N-(piperidin-3-yl)-4,5-dihydro-3H-1-thia-3,5,8-triazaacenaphthylene-2-carboxamide] | <5 |
| Nc1ccc(N2C(=O)Nc3c(C(=O)N[C@@H]4CCCNC4)sc4nccc2c34)cc1 [Example 956, (R)-5-(4-Aminophenyl)-4-oxo-N-(piperidin-3-yl)-4,5-dihydro-3H-1-thia-3,5,8-triazaacenaphthylene-2-carboxamide] | <5 |

Continued, values first:

| BTK_I_binding pIC50 | SMILES |
| --- | --- |
| 6.0 | O=C(N[C@@H]1CCCNC1)c1sc2nccc3c2c1NC(=O)N3c1cccc(-c2cccnc2)c1 [Example 937, (R)-4-Oxo-N-(piperidin-3-yl)-5-(3-(pyridin-3-yl)phenyl)-4,5-dihydro-3H-1-thia-3,5,8-triazaacenaphthylene-2-carboxamide] |
| 6.0 | Cc1ccc(Oc2ccccc2)cc1N1C(=O)Nc2c(C(=O)N[C@H]3CCCN(C(=O)/C(C#N)=C/C4CC4)C3)sc3nccc1c23 [Example 938, (S,E)-N-(1-(2-Cyano-3-cyclopropylacryloyl)piperidin-3-yl)-5-(2-methyl-5-phenoxyphenyl)-4-oxo-4,5-dihydro-3H-1-thia-3,5,8-triazaacenaphthylene-2-carboxamide] |
| 6.0 | N#C/C(=C\C1CC1)C(=O)N1CCC[C@H](NC(=O)c2sc3nccc4c3c2NC(=O)N4c2cccc(Oc3ccccc3)c2)C1 [Example 939, (S,E)-N-(1-(2-Cyano-3-cyclopropylacryloyl)piperidin-3-yl)-4-oxo-5-(3-phenoxyphenyl)-4,5-dihydro-3H-1-thia-3,5,8-triazaacenaphthylene-2-carboxamide] |
| 5.9 | O=C(N[C@H]1CCN(C(=O)c2ccccc2)C1)c1sc2nccc3c2c1NC(=O)N3c1ccc(Oc2ccccc2)cc1 [Example 940, (S)—N-(1-benzoylpyrrolidin-3-yl)-4-oxo-5-(4-phenoxyphenyl)-4,5-dihydro-3H-1-thia-3,5,8-triazaacenaphthylene-2-carboxamide] |
| 5.6 | Cc1ccccc1N1C(=O)Nc2c(C(=O)N[C@H]3CCCN(C(=O)/C(C#N)=C/C4CC4)C3)sc3nccc1c23 [Example 942, (S,E)-N-(1-(2-Cyano-3-cyclopropylacryloyl)piperidin-3-yl)-4-oxo-5-(o-tolyl)-4,5-dihydro-3H-1-thia-3,5,8-triazaacenaphthylene-2-carboxamide] |
| 5.6 | Cc1cc(Oc2ccccc2)ccc1N1C(=O)Nc2c(C(=O)NC3CCN(C(=O)CC#N)CC3)sc3nccc1c23 [Example 944, N-(1-(2-Cyanoacetyl)piperidin-4-yl)-5-(2-methyl-4-phenoxyphenyl)-4-oxo-4,5-dihydro-3H-1-thia-3,5,8-triazaacenaphthylene-2-carboxamide] |
| 5.5 | O=C(N[C@H]1CCN(Cc2ccccc2)C1)c1sc2nccc3c2c1NC(=O)N3c1ccc(Oc2ccccc2)cc1 [Example 945, (S)—N-(1-Benzylpyrrolidin-3-yl)-4-oxo-5-(4-phenoxyphenyl)-4,5-dihydro-3H-1-thia-3,5,8-triazaacenaphthylene-2-carboxamide] |
| 5.4 | COc1ccc(N2C(=O)Nc3c(C(=O)N[C@H]4CCCN(C(=O)/C(C#N)=C/C5CC5)C4)sc4nccc2c34)c(C)c1 [Example 946, (S,E)-N-(1-(2-Cyano-3-cyclopropylacryloyl)piperidin-3-yl)-5-(4-methoxy-2-methylphenyl)-4-oxo-4,5-dihydro-3H-1-thia-3,5,8-triazaacenaphthylene-2-carboxamide] |
| 5.4 | CCC(=O)N1CCC(NC(=O)c2sc3nccc4c3c2NC(=O)N4c2ccc(Oc3ccccc3)cc2C)CC1 [Example 947, 5-(2-Methyl-4-phenoxyphenyl)-4-oxo-N-(1-propionylpiperidin-4-yl)-4,5-dihydro-3H-1-thia-3,5,8-triazaacenaphthylene-2-carboxamide] |
| 5.2 | C=CC(=O)N1CCC[C@@H](NC(=O)c2sc3nccc4c3c2NC(=O)N4c2ccc(N)cc2)C1 [Example 948, (R)—N-(1-Acryloylpiperidin-3-yl)-5-(4-aminophenyl)-4-oxo-4,5-dihydro-3H-1-thia-3,5,8-triazaacenaphthylene-2-carboxamide] |
| <5 | Cc1c(Oc2ccccc2)cccc1N1C(=O)Nc2c(C(=O)N[C@H]3CCCN(C(=O)/C(C#N)=C/C4CC4)C3)sc3nccc1c23 [Example 957, (S,E)-N-(1-(2-Cyano-3-cyclopropylacryloyl)piperidin-3-yl)-5-(2-methyl-3-phenoxyphenyl)-4-oxo-4,5-dihydro-3H-1-thia-3,5,8-triazaacenaphthylene-2-carboxamide] |
| 5.6 | C=CC(=O)N1CC[C@@H](NC(=O)c2sc3nccc4c3c2NC(=O)N4c2ccc(Oc3cccnn3)nc2C)C1 [Example 974, (R)—N-(1-Acryloylpyrrolidin-3-yl)-5-(2-methyl-6-(pyridazin-3-yloxy)pyridin-3-yl)-4-oxo-4,5-dihydro-3H-1-thia-3,5,8-triazaacenaphthylene-2-carboxamide] |
| 5.0 | C=CC(=O)N1CCC[C@@H](NC(=O)c2sc3nccc4c3c2NC(=O)N4c2ccc(Oc3cccnn3)nc2C)C1 [Example 975, (R)—N-(1-Acryloylpiperidin-3-yl)-5-(2-methyl-6-(pyridazin-3-yloxy)pyridin-3-yl)-4-oxo-4,5-dihydro-3H-1-thia-3,5,8-triazaacenaphthylene-2-carboxamide] |
